Data as given in publication PMC6479757, “Coralmycin Derivatives with Potent Anti-Gram Negative Activity Produced by the Myxobacteria Corallococcus coralloides M23” (Molecules, 2019).
Values after ≈ are worked out from the molar mass of the structure shown. Read-outs that look alike come from different tables or passages of the source.

Assays:
[1] = system: MRSA CCARM 3167; assay: Antibacterial susceptibility, broth microdilution MIC; assay type: cell-based; details: Staphylococcus aureus, 24-h incubation at 37 °C
Procedure: (§1) Whole-cell antimicrobial activities were determined using a broth microdilution method described previously. Most of the test strains were grown to mid-log phase in Mueller–Hinton broth and diluted 1,000-fold in the same medium. Cells (10^5/mL) were dispensed at 0.2 mL/well in 96-well microtiter plates. Streptococcus pneumonia and Acinetobacter baumanii were grown in Todd–Hewitt medium and nutrient broth, respectively. […]. Cells were treated with 0.05% DMSO as a vehicle control. The MICs were determined in triplicate by serial two-fold dilutions of the test compounds. […] Bacterial growth was determined by measuring the absorption at 650 nm using a microtiter enzyme-linked immunosorbent assay (ELISA) reader (Molecular Devices Corporation, Sunnyvale, CA, USA).

[2] = system: Enterococcus faecalis KCTC 5191; assay: as above; assay type: cell-based; details: KCTC5191, 24-h incubation at 37 °C
Procedure: as §1

[3] = system: Klebsiella pneumoniae KCTC 22057; assay: as above; assay type: cell-based; details: KCTC22057; Klebsiella pneumoniae KCTC 22057; 24-h incubation at 37 °C
Procedure: as §1

[4] = system: Pseudomonas aeruginosa KCTC 2004; assay: as above; assay type: cell-based; details: KCTC2004; Pseudomonas aeruginosa KCTC 2004; 24-h incubation at 37 °C
Procedure: as §1

[5] = system: E. coli CCARM 1356; assay: as above; assay type: cell-based; details: Escherichia coli, CCARM1356, 24-h incubation at 37 °C
Procedure: as §1

[6] = system: Streptococcus pneumonia KCTC 5412; assay: as above; assay type: cell-based; details: Streptococcus pneumoniae, KCTC5412, Todd–Hewitt medium, 24-h incubation at 37 °C
Procedure: as §1

[7] = system: Acinetobacter baumannii KCTC 2508; assay: as above; assay type: cell-based; details: KCTC2508, nutrient broth, 24-h incubation at 37 °C
Procedure: as §1

[8] = system: E. coli KCTC 1682; assay: as above; assay type: cell-based; details: Escherichia coli
Procedure: as §1

[9] = system: MRSA CCARM 3506; assay: as above; assay type: cell-based; details: Staphylococcus aureus, 24-h incubation at 37 °C
Procedure: as §1

[10] = system: QRSA CCARM 3505; assay: as above; assay type: cell-based; details: Staphylococcus aureus, CCARM3505; QRSA CCARM 3505; 24-h incubation at 37 °C; read-out: MIC
Procedure: as §1

[11] = system: QRSA CCARM 3519; assay: as above; assay type: cell-based; details: Staphylococcus aureus, CCARM3519; QRSA CCARM 3519; 24-h incubation at 37 °C; read-out: MIC
Procedure: as §1

[12] = biological target: DNA gyrase; details: read-out: IC50, DNA gyrase-inhibitory activity; cited from earlier work
[13] = system: Gram-negative and Gram-positive bacteria; details: cited from earlier work
[14] = system: Staphylococcus aureus RN 4220; assay: Antibacterial susceptibility, broth microdilution MIC; assay type: cell-based; details: RN4220, 24 h
Procedure: Whole-cell antimicrobial activities were determined using a broth microdilution method described previously. Most of the test strains were grown to mid-log phase in Mueller–Hinton broth and diluted 1,000-fold in the same medium. Cells (10^5/mL) were dispensed at 0.2 mL/well in 96-well microtiter plates. Streptococcus pneumonia and Acinetobacter baumanii were grown in Todd–Hewitt medium and nutrient broth, respectively. […] Cells were treated with 0.05% DMSO as a vehicle control. The MICs were determined in triplicate by serial two-fold dilutions of the test compounds. […] Bacterial growth was determined by measuring the absorption at 650 nm using a microtiter enzyme-linked immunosorbent assay (ELISA) reader (Molecular Devices Corporation, Sunnyvale, CA, USA).

[15] = biological target: T1, E. coli DNA gyrase (Escherichia coli, UniProt P0AES4+P0AES6); assay: DNA gyrase supercoiling assay; assay type: biochemical; details: relaxed plasmid, 37 °C for 30 min, agarose gel band densities; read-out: IC50, inhibition of the supercoiling activity of E. coli DNA gyrase
T1 construct: purchased TopoGEN TG2001G
T1 sequence (P0AES4 whole entry, one chain of several): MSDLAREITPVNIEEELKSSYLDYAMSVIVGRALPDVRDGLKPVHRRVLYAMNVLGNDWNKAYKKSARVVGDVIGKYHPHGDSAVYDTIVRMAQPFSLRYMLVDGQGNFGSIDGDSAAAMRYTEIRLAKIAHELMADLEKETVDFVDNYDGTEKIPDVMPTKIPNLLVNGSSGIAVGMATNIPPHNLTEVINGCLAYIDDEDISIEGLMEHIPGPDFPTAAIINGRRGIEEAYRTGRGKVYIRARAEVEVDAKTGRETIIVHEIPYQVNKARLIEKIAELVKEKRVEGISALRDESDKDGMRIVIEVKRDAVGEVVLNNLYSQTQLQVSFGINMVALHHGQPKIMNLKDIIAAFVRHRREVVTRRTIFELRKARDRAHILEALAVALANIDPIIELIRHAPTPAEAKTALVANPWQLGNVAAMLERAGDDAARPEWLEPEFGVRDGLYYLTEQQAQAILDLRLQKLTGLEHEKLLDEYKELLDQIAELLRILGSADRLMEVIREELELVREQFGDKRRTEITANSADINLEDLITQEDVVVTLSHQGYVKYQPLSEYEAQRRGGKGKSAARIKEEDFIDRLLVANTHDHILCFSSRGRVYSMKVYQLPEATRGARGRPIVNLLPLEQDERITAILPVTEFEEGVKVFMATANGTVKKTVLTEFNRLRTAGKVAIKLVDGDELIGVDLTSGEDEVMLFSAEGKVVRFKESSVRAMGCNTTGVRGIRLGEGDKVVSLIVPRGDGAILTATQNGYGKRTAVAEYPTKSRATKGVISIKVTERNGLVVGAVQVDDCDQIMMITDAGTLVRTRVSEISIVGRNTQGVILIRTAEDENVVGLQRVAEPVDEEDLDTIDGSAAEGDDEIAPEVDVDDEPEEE
Procedure: The inhibitory activities of coralmycins on the supercoiling activity of DNA gyrase were investigated using a ‘Purified E. coli DNA Gyrase Drug Screening Kit’ (TopoGEN #TG2001G, Buena Vista, CO, USA). […] The reaction was terminated by the addition of 2 μL of 10% (w/v) SDS and 2 μL of 10× DNA gel loading dye (bromophenol blue). Then, 20 μL of chloroform:isoamyl alcohol (24:1 mixture) was added, and the mixture was vortexed and then centrifuged. The samples in the blue phase were run on 1% (w/v) agarose gel and were visualized using ethidium bromide. All reactions were performed in triplicate. To calculate the IC50 values, the band densities were measured using ImageJ (National Institutes of Health, Bethesda, Maryland, MD, USA).

[16] = system: Gram-negative pathogens as well as Gram-positive bacteria; set-up: method as in PMID 27598688; details: compared with 11; cited from earlier work
[17] = system: Gram-negative pathogens; details: compared with 12; cited from earlier work
[18] = KCTC1682, 24-h incubation at 37 °C, Table 6 and Table S1, read-out: MIC

Compound: CC(C)Oc1cc(C(=O)O)ccc1NC(=O)c1ccc(NC(=O)c2ccc(N)cc2)c(OC(C)C)c1O [Compound 10, cystobactamid 507]
- MIC [1]: > 32 µg/mL
- MIC [2]: > 32 µg/mL
- MIC [3]: > 32 µg/mL
- MIC [4]: > 32 µg/mL
- MIC [5]: > 32 µg/mL
- MIC [6]: > 32 µg/mL
- MIC [7]: > 32 µg/mL
- MIC [8, 18]: > 32 µg/mL
- MIC ([8]; KCTC1682, Table 7, read-out: MIC, antibacterial activity on E. coli KCTC 1682): > 32 µg/mL
- MIC [9]: > 32 µg/mL
- MIC [10]: > 32 µg/mL
- MIC [11]: > 32 µg/mL
- IC50 [12]: 20.2 µM
- antibacterial activity ([13]; in words): weak antibacterial activity
- MICs against Gram-negative and Gram-positive bacteria ([13]; reported range): 4 to 65 µg/mL
- MIC [14]: > 32 µg/mL
- IC50 [15]: > 300 µM

Compound: CO[C@@H](C(N)=O)[C@H](NC(=O)c1ccc(NC(=O)c2ccc([N+](=O)[O-])cc2)cc1)C(=O)Nc1ccc(C(=O)Nc2ccc(C(=O)Nc3ccc(C(=O)O)c(O)c3OC(C)C)c(O)c2OC(C)C)cc1 [Compound 12, coralmycin A, reference compound]
- MIC [1]: 0.015 µg/mL (≈ 0.016 µM)
- MIC [2]: 0.03 µg/mL (≈ 0.0321 µM)
- MIC [3]: 2 µg/mL (≈ 2.14 µM)
- MIC [4]: 4 µg/mL (≈ 4.27 µM)
- MIC [5]: 0.125 µg/mL (≈ 0.134 µM)
- MIC [6]: 0.25 µg/mL (≈ 0.267 µM)
- MIC [7]: 0.125 µg/mL (≈ 0.134 µM)
- MIC [8, 18]: 0.125 µg/mL (≈ 0.134 µM)
- MIC ([8]; KCTC1682, 24 h, Table 7, read-out: MIC, antibacterial activity on E. coli KCTC 1682): 0.25 µg/mL (≈ 0.267 µM)
- MIC [9]: 0.015 µg/mL (≈ 0.016 µM)
- MIC [10]: 0.125 µg/mL (≈ 0.134 µM)
- MIC [11]: 0.25 µg/mL (≈ 0.267 µM)
- antibacterial activity relative to 11 (times higher) [16]: 10 times
- MIC [14]: 0.015 µg/mL (≈ 0.016 µM)
- IC50 [15]: 0.08 µM

Compound: CO[C@@H](C(N)=O)[C@H](NC(=O)c1ccc(NC(=O)c2ccc([N+](=O)[O-])cc2)cc1)C(=O)Nc1ccc(C(=O)Nc2ccc(C(=O)Nc3ccc(C(=O)O)cc3)c(O)c2OC(C)C)cc1 [cystobactamid 861-2]
- antibacterial activity against Gram-negative pathogens relative to 12 (times higher) [17]: 4–10 times
